According to patent US20210379063A1, “ORAL AMINODIHYDROPHTHALAZINEDIONE COMPOSITIONS AND THEIR USE IN THE TREATMENT OF NON-VIRAL HEPATITIS” (Immunopharma Plus D.O.O., priority 2018, published 2021):
Entries after “also recorded” stand apart in the source; their conditions may differ. Read-outs that look alike come from different tables or passages of the source.

How the values were obtained:
[1] = in vitro; conditions: pig, pH 7.4
Description: (§1) The intestine was prepared so the mucous side will be facing the donor compartment.

[2] = tested on: porcine large intestine (colon); assay: in vitro; conditions: pig, 10 mM, pH 7.4
Description: as §1

[3] = tested on: porcine stomach (cardia); conditions: for concentration in receptor compartment, Propranolol stomach, AVG / concentration in receptor compartment, Propranolol stomach: 10 mM donor solution; for concentration in receptor compartment, Propranolol stomach: single chambers
[4] = tested on: porcine small intestine
Description: Porcine Small Intestinal (SI) Permeability Procedure • Full thickness pig small intestinal delivered to Solubest on the day of the experiment. • Experiments were carried out on 6 slices 2 cm*2 cm with full thickness pig small intestinal sample • The intestinal was prepared so brush border side is facing the donor compartment. • According to Solubest protocol the excess mucus and connective tissue were removed • The receiver compartment contains 0.01M Phosphate Buffer pH 7.4 (PBS). • Receiver's samples were withdrawn at 5 time points (30 min, 60 min, 120 min, 4 hours and 6 hours). • Water pump was set to temp 38±1° C. in order to keep fixed temp in receptor department at 37±1° C.

[5] = cited from earlier work
[6] = tested on: PHMG poisoning; assay: Acute hepatitis caused by alcohol substitute PHMG in rats; conditions: single intraperitoneal injection, 50 mg/100 g
Description: The experiment was carried out on 25 male white outbred rats weighing 200-300 g, in accordance with the recommendations of the international ethics committees on the humane treatment of laboratory animals (EU Council Directive 86/609 EEC dated Nov. 24, 1986). To create an experimental model, an aqueous solution of PHMG was used, which was administered intraperitoneally at a dose of 50 mg/100 g.

## CC(C)NCC(O)COc1cccc2ccccc12 (centres unmarked) [Propranolol]
[1]
  recovery at 0 min, 10 mM: 0%
  recovery at 30 min, 10 mM: 0.16%
  recovery at 60 min, 10 mM: 0.4%
  recovery at 120 min, 10 mM: 1.04%
  recovery at 240 min, 10 mM: 2.36%
  recovery at 360 min, 10 mM: 3.43%
  recovery at 720 min, 10 mM: 6.47%
[2]; 0 min
  concentration in receptor comp, large intestine, AVG: 0 ng/mL
  concentration in receptor compartment, large intestine: 0 ng/mL
  mg in receptor comp: 0.000 mg
[2]; 30 min
  concentration in receptor comp, large intestine, AVG: 2000 ng/mL
  mg in receptor comp: 0.010 mg
[2]; 60 min
  concentration in receptor comp, large intestine, AVG: 5000 ng/mL
  mg in receptor comp: 0.026 mg
[2]; 120 min
  concentration in receptor comp, large intestine, AVG: 14000 ng/mL
  mg in receptor comp: 0.068 mg
[2]; 240 min
  concentration in receptor comp, large intestine, AVG: 31000 ng/mL
  mg in receptor comp: 0.154 mg
[2]; 360 min
  concentration in receptor comp, large intestine, AVG: 45000 ng/mL
  mg in receptor comp: 0.223 mg
[2]; 720 min
  concentration in receptor comp, large intestine, AVG: 84000 ng/mL
  mg in receptor comp: 0.421 mg
[3]
  permeation through stomach tissue, in words: almost no permeation; also recorded: poorly penetrate through the stomach tissue
[3]; 0 min
  concentration in receptor compartment, Propranolol stomach, AVG: 0 ng/mL
  concentration in receptor compartment, Propranolol stomach: 0 ng/mL
[3]; 30 min
  concentration in receptor compartment, Propranolol stomach, AVG: 0 ng/mL
  concentration in receptor compartment, Propranolol stomach: 0 ng/mL
[3]; 60 min
  concentration in receptor compartment, Propranolol stomach, AVG: 0 ng/mL
  concentration in receptor compartment, Propranolol stomach: 0 ng/mL
[3]; 120 min
  concentration in receptor compartment, Propranolol stomach, AVG: 0 ng/mL
  concentration in receptor compartment, Propranolol stomach: 0 ng/mL
[3]; 240 min
  concentration in receptor compartment, Propranolol stomach, AVG: 0 ng/mL
  concentration in receptor compartment, Propranolol stomach: 0 ng/mL
[3]; 420 min
  concentration in receptor compartment, Propranolol stomach, AVG: 0 ng/mL
  concentration in receptor compartment, Propranolol stomach: 0 ng/mL
[4]
  permeability through small intestine tissue, in words: well adsorbed
[4]; 10 mM donor solution, 0 min
  concentration in receptor compartment, small intestine, AVG: 0 ng/mL
[4]; 10 mM donor solution, 0 min, single chambers
  concentration in receptor compartment, small intestine: 0 ng/mL
[4]; 10 mM donor solution, 30 min
  concentration in receptor compartment, small intestine, AVG: 1000 ng/mL
[4]; 10 mM donor solution, 60 min
  concentration in receptor compartment, small intestine, AVG: 5000 ng/mL
[4]; 10 mM donor solution, 120 min
  concentration in receptor compartment, small intestine, AVG: 13000 ng/mL
[4]; 10 mM donor solution, 240 min
  concentration in receptor compartment, small intestine, AVG: 33000 ng/mL
[4]; 10 mM donor solution, 360 min
  concentration in receptor compartment, small intestine, AVG: 55000 ng/mL
[4]; listed as propranolol
  permeability through small intestine tissue, in words: permeates well
[5]; after ingestion
  time of peak plasma levels: 1 to 3 h
[5]; high solubility, high permeability
  BSC classification: class 1

## polyhexamethyleneguanidine [PHMG]
[6]
  mortality: about 70%
